Experimental data: patent publication US11034698B2, “Pyrazolo[ 1,5a]pyrimidine derivatives as IRAK4 modulators” (priority 2017, dated 2021)
Where two headings read alike, the source gives them in different places.

Target: human IRAK4 (Homo sapiens (Human), UniProt Q9NWZ3)
Experiment: IRAK4 kinase inhibition, Transcreener fluorescence polarization (ADP)
Type: biochemical
Experimental: Compounds were assayed for inhibition of human IRAK4 and IRAK1 catalytic activity using recombinant enzyme produced from insect cells. Full-length IRAK4 protein, carrying an N-terminal His6-Tag, was obtained from Life Technologies (Carlsbad, Calif., USA). The IRAK1 construct was produced internally and was comprised of IRAK1 residues Arg194 to Ser712, preceded by an NH2-terminal His6 tag and the coding sequence for glutathione-S-transferase.
Kinase activities were assayed using the Transcreener-Fluorecescence polarization platform (BelBrook Labs, Madison, Wis., USA) that measures amounts of the reaction product, ADP.

[1] = recombinant full-length His6-IRAK4 1.25 nM, 125 uM ATP, 125 uM peptide, 90 min, ATP Km 642 uM, read-out: IRAK4 Ki

human IRAK4, sequence (Q9NWZ3 whole entry): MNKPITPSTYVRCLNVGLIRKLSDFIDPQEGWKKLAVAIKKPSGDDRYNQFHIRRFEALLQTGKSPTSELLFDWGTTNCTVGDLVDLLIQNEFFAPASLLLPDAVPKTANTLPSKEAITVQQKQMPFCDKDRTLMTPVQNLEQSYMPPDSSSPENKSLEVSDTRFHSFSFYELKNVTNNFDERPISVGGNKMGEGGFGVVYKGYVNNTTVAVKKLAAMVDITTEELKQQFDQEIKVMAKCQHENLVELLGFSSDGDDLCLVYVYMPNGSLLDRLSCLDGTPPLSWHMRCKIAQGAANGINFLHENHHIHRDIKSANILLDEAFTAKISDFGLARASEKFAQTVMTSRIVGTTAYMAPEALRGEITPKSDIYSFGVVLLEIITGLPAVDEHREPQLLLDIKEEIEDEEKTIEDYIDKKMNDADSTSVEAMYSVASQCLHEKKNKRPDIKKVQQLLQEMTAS

SMILES | Ki | Ki [1]
CC1(C)Cc2cc(NC(=O)c3cnn4cccnc34)c(OC[C@@H]3Cc4ccccc4[C@@H]3N)cc2O1 (single isomer, unassigned) [Example 29] | 780 nM | –
CC(C)(O)[C@H](F)CN1Cc2cc(NC(=O)c3cnn4cccnc34)c(OCC3COC3)cc2C1=O [Example 79, (R)-N-(2-(2-Fluoro-3-hydroxy-3-methylbutyl)-6-(oxetan-3-ylmethoxy)-1-oxoisoindolin-5-yl)pyrazolo[1,5-a]pyrimidine-3-carboxamide] | – | 0.97 nM
CC(C)Oc1cc2c(cc1NC(=O)c1cnn3cccnc13)CN([C@@H]1CCOC1)C2=O (single isomer, unassigned) [Example 69] | 1.8 nM | –
CC1(C)Cc2cc(NC(=O)c3cnn4cccnc34)c(N3CCN(CCN)CC3)cc2O1 [Example 1, N-[6-[4-(2-aminoethyl)piperazin-1-yl]-2,2-dimethyl-3H-benzofuran-5-yl]pyrazolo[1,5-a]pyrimidine-3-carboxamide] | – | 7.4 nM
CC(=O)NCCN1CCN(c2cc3c(cc2NC(=O)c2cnn4cccnc24)CC(C)(C)O3)CC1 [Example 3, N-(6-(4-(2-Acetamidoethyl)piperazin-1-yl)-2,2-dimethyl-2,3-dihydrobenzofuran-5-yl)pyrazolo[1,5-a]pyrimidine-3-carboxamide] | – | 3.7 nM
CC(C)(O)[C@H](F)CN1Cc2cc(NC(=O)c3cnn4cccnc34)c(O[C@@H]3CC[C@H](O)C3)cc2C1=O (single isomer, unassigned) [Example 67] | 1.1 nM | –
COc1cc2c(cc1NC(=O)c1cnn3ccc(NCCN)nc13)CC(C)(C)O2 [Example 43, 5-((2-Aminoethyl)amino)-N-(6-methoxy-2,2-dimethyl-2,3-dihydrobenzofuran-5-yl)pyrazolo[1,5-a]pyrimidine-3-carboxamide] | – | 3.2 nM
COc1cc2c(cc1NC(=O)c1cnn3ccc(N(C)C4CC4)nc13)CC(C)(C)O2 [Example 38, 5-(Cyclopropyl(methyl)amino)-N-(6-methoxy-2,2-dimethyl-2,3-dihvdrobenzofuran-5-yl)pyrazolo[1,5-a]pyrimidine-3-carboxamide] | – | 180 nM
CC(C)(C)Oc1cc2c(cc1NC(=O)c1cnn3cccnc13)CN(C[C@@H](F)C(C)(C)O)C2=O [Example 90, (R)-N-(6-(tert-Butoxy)-2-(2-fluoro-3-hydroxy-3-methylbutyl)-1-oxoisoindolin-5-yl)pyrazolo[1,5-a]pyrimidine-3-carboxamide] | – | 0.61 nM
CCc1oncc1CN1CCN(c2cc3c(cc2NC(=O)c2cnn4cccnc24)CN(C[C@@H](F)C(C)(C)O)C3=O)CC1 [Example 103, (R)-N-(6-(4-((5-Ethylisoxazol-4-yl)methyl)piperazin-1-yl)-2-(2-fluoro-3-hydroxy-3-methylbutyl)-1-oxoisoindolin-5-yl)pyrazolo[1,5-a]pyrimidine-3-carboxamide] | – | 5.4 nM
COc1cc2c(cc1NC(=O)c1cnn3ccc(N4CCC[C@@H](N)C4)nc13)CC(C)(C)O2 [Example 39, (R)-5-(3-Aminopiperidin-1-yl)-N-(6-methoxy-2,2-dimethyl-2,3-dihydrobenzofuran-5-yl)pyrazolo[1,5-a]pyrimidine-3-carboxamide] | – | 4.1 nM
CC(C)(O)[C@H](F)CN1Cc2cc(NC(=O)c3cnn4cccnc34)c(N3CCN(CC(F)(F)F)CC3)cc2C1=O [Example 109, (R)-N-(2-(2-Fluoro-3-hydroxy-3-methylbutyl)-1-oxo-6-(4-(2,2,2-trifluoroethyl)piperazin-1-yl)isoindolin-5-yl)pyrazolo[1,5-a]pyrimidine-3-carboxamide] | – | 2.6 nM
Cc1ncsc1CN1CCN(c2cc3c(cc2NC(=O)c2cnn4cccnc24)CC(C)(C)O3)CC1 [Example 11, N-(2,2-Dimethyl-6-(4-((4-methylthiazol-5-yl)methyl)piperazin-1-yl)-2,3-dihydrobenzofuran-5-yl)pyrazolo[1,5-a]pyrimidine-3-carboxamide] | – | 4.6 nM
CC(C)(O)[C@H](F)CN1Cc2cc(NC(=O)c3cnn4cccnc34)c(OC3CCOCC3)cc2C1=O [Example 85, (R)-N-(2-(2-Fluoro-3-hydroxy-3-methylbutyl)-1-oxo-6-((tetrahydro-2H-pyran-4-yl)oxy)isoindolin-5-yl)pyrazolo[1,5-a]pyrimidine-3-carboxamide] | – | 1.8 nM
O=C(Nc1cc2c(cc1N1CCOCC1)C(=O)N(CC1CCOCC1)C2)c1cnn2cccnc12 [Example 92, N-[6-Morpholino-1-oxo-2-(tetrahydropyran-4-ylmethyl)isoindolin-5-yl]pyrazolo[1,5-a]pyrimidine-3-carboxamide] | – | 3.7 nM
CC1(C)Cc2cc(NC(=O)c3cnn4cccnc34)c(O[C@@H]3CN(CC(N)=O)C[C@H]3N)cc2O1 (single isomer, unassigned) [Example 20] | 17 nM | –

SMILES | Ki | Ki [1]
CC1(C)Cc2cc(NC(=O)c3cnn4cccnc34)c(OC[C@@H]3C[C@@H]4NCCO[C@H]4C3)cc2O1 (single isomer, unassigned) [Example 31] | 60 nM | –
CC(C)(O)[C@H](F)CN1Cc2cc(NC(=O)c3cnn4cccnc34)c(O[C@@H]3CCOC3)cc2C1=O [Example 83, N-(2-((R)-2-Fluoro-3-hydroxy-3-methylbutyl)-1-oxo-6-(((R)-tetrahydrofuran-3-yl)oxy)isoindolin-5-yl)pyrazolo[1,5-a]pyrimidine-3-carboxamide] | – | 0.71 nM
COc1cc2c(cc1NC(=O)c1cnn3ccc(Cl)nc13)CC(C)(C)O2 [Example 21, 5-Chloro-N-(6-methoxy-2,2-dimethyl-2,3-dihydrobenzofuran-5-yl)pyrazolo[1,5-a]pyrimidine-3-carboxamide] | – | 110 nM
Cc1cnc2c(C(=O)Nc3cc4c(cc3OC(C)C)C(=O)N(C[C@@H](F)C(C)(C)O)C4)cnn2c1 [Example 81, (R)-N-(2-(2-Fluoro-3-hydroxy-3-methylbutyl)-6-isopropoxy-1-oxoisoindolin-5-yl)-6-methylpyrazolo[1,5-a]pyrimidine-3-carboxamide] | – | 0.42 nM
O=C(Nc1cc2c(cc1N1CCOCC1)N(CCO)C(=O)CC2)c1cnn2cccnc12 [Example 47, N-(1-(2-Hydroxyethyl)-7-morpholino-2-oxo-1,2,3,4-tetrahydroquinolin-6-yl)pyrazolo[1,5-a]pyrimidine-3-carboxamide] | – | 53 nM
Cc1ccc(=O)[nH]c1CN1CCN(c2cc3c(cc2NC(=O)c2cnn4cccnc24)CC(C)(C)O3)CC1 [Example 5, N-(2,2-Dimethyl-6-(4-((3-methyl-6-oxo-1,6-dihydropyridin-2-yl)methyl)piperazin-1-yl)-2,3-dihydrobenzofuran-5-yl)pyrazolo[1,5-a]pyrimidine-3-carboxamide] | – | 18 nM
Cc1noc(C)c1CN1CCN(c2cc3c(cc2NC(=O)c2cnn4cccnc24)CC(C)(C)O3)CC1 [Example 16, N-(6-(4-((3,5-Dimethylisoxazol-4-yl)methyl)piperazin-1-yl)-2,2-dimethyl-2,3-dihydrobenzofuran-5-yl)pyrazolo[1,5-a]pyrimidine-3-carboxamide] | – | 14 nM
CC1(C)Cc2cc(NC(=O)c3cnn4cccnc34)c(OC[C@H]3Cc4ccccc4[C@H]3N)cc2O1 (single isomer, unassigned) [Example 27] | 670 nM | –
CCc1oc(=O)[nH]c1CN1CCN(c2cc3c(cc2NC(=O)c2cnn4cccnc24)CC(C)(C)O3)CC1 [Example 15, N-(6-(4-((5-Ethyl-2-oxo-2,3-dihydrooxazol-4-yl)methyl)piperazin-1-yl)-2,2-dimethyl-2,3-dihydrobenzofuran-5-yl)pyrazolo[1,5-a]pyrimidine-3-carboxamide] | – | 9.4 nM
C[C@]1(CCC#N)COc2cc(N3CCOCC3)c(NC(=O)c3cnn4cccnc34)cc2C1 (single isomer, unassigned) [Example 59] | 30 nM | –
CN1C[C@H](COc2cc3c(cc2NC(=O)c2cnn4cccnc24)CC(C)(C)O3)CC1=O [Example 24, (R)-N-(2,2-Dimethyl-6-((1-methyl-5-oxopyrrolidin-3-yl)methoxy)-2,3-dihydrobenzofuran-5-yl)pyrazolo[1,5-a]pyrimidine-3-carboxamide] | – | 160 nM
CC(C)(O)[C@H](F)CN1Cc2cc(NC(=O)c3cnn4cccnc34)c(OC3CCNCC3)cc2C1=O [Example 70, (R)-N-(2-(2-Fluoro-3-hydroxy-3-methylbutyl)-1-oxo-6-(piperidin-4-yloxy)isoindolin-5-yl)pyrazolo[1,5-a]pyrimidine-3-carboxamide] | – | 0.7 nM
CO[C@@H]1C[C@H]2CN(c3cc4c(cc3NC(=O)c3cnn5cccnc35)CN(C[C@@H](F)C(C)(C)O)C4=O)CCN2C1 [Example 101, N-(2-((R)-2-Fluoro-3-hydroxy-3-methylbutyl)-6-((7R,8aS)-7-methoxyhexahydropyrrolo[1,2-a]pyrazin-2(1H)-yl)-1-oxoisoindolin-5-yl)pyrazolo[1,5-a]pyrimidine-3-carboxamide] | – | 12 nM
Cn1cc(Oc2cc3c(cc2NC(=O)c2cnn4cccnc24)CN(C[C@@H](F)C(C)(C)O)C3=O)cn1 [Example 89, (R)-N-(2-(2-Fluoro-3-hydroxy-3-methylbutyl)-6-((1-methyl-1H-pyrazol-4-yl)oxy)-1-oxoisoindolin-5-yl)pyrazolo[1,5-a]pyrimidine-3-carboxamide] | – | 1.3 nM
CC(C)(O)[C@H](F)CN1Cc2cc(NC(=O)c3cnn4cccnc34)c(O[C@H]3CC[C@@H](O)C3)cc2C1=O [Example 66, N-(2-((R)-2-Fluoro-3-hydroxy-3-methylbutyl)-6-(((1S,3R)-3-hydroxycyclopentyl)oxy)-1-oxoisoindolin-5-yl)pyrazolo[1,5-a]pyrimidine-3-carboxamide] | – | 0.67 nM
CC(C)(O)[C@H](F)CN1Cc2cc(NC(=O)c3cnn4cccnc34)c(O[C@H]3C[C@@H](Cl)C3)cc2C1=O [Example 64, N-[6-(3-Chlorocyclobutoxy)-2-[(2R)-2-fluoro-3-hydroxy-3-methyl-butyl]-1-oxo-isoindolin-5-yl]pyrazolo[1,5-a]pyrimidine-3-carboxamide] | – | 0.51 nM
